Assays:
[1] = target: T1, hERG channel (Homo sapiens, UniProt Q12809); assay: hERG channel inhibition assay (patch-clamp, CHOhERG cells); format: cell-based; conditions: for IC50 / IC20: CHOhERG cells, whole-cell patch-clamp; for IC20: human, CHO cells stably expressing hERG (CHOhERG); for hERG IC20/TLR7 IC50 / hERG IC20/TLR8 IC50 / hERG IC20/TLR9 IC50: safety ratio
T1 construct: expressed in transfected cells; host or cells: CHO (Chinese hamster ovary), CHOhERG
In short: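 Whole-cell voltage-clamp recordings of IKhERG in CHO cells stably expressing human hERG, stimulated at 0.1 Hz. Compound applied at rising concentrations, each held 3–10 min to reach steady state; current amplitude and kinetics compared with pre-drug control set as 100%.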

[2] = target: T2, human TLR7 (Homo sapiens, UniProt Q9NYK1); assay: HEK293-Blue-hTLR-7 cells assay; format: cell-based; conditions: HEK293-Blue-hTLR7 cells, R848 stimulation, 20 hrs, SEAP reporter; read-out: HEK/hTLR7 IC50
T2 construct: host or cells: HEK293 (HEK-Blue hTLR7)
T2 sequence (Q9NYK1 27-1049): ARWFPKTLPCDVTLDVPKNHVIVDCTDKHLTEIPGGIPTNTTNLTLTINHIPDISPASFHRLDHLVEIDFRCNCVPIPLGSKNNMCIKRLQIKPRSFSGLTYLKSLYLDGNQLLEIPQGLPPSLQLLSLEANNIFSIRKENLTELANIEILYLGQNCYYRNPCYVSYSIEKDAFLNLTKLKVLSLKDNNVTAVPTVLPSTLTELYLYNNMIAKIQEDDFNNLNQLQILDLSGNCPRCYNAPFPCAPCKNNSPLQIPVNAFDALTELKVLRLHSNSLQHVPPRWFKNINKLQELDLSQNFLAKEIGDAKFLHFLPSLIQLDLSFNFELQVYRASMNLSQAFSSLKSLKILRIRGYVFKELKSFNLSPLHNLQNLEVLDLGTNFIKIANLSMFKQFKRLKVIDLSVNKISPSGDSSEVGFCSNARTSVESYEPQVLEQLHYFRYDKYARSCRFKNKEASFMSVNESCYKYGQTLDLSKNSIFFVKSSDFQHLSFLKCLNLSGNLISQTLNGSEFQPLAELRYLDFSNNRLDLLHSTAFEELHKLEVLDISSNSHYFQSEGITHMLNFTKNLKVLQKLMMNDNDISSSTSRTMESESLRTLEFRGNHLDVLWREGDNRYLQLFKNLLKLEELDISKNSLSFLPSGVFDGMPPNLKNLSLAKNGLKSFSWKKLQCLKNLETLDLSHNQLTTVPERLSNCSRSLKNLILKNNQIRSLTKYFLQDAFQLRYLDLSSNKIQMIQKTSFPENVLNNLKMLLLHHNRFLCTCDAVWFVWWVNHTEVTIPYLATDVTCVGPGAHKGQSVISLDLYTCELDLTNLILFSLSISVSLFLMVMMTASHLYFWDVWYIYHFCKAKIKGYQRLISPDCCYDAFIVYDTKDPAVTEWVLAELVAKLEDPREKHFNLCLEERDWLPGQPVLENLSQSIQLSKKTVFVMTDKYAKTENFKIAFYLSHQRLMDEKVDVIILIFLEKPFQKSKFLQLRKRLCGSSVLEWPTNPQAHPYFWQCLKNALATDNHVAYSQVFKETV

T1 sequence (Q12809 whole entry): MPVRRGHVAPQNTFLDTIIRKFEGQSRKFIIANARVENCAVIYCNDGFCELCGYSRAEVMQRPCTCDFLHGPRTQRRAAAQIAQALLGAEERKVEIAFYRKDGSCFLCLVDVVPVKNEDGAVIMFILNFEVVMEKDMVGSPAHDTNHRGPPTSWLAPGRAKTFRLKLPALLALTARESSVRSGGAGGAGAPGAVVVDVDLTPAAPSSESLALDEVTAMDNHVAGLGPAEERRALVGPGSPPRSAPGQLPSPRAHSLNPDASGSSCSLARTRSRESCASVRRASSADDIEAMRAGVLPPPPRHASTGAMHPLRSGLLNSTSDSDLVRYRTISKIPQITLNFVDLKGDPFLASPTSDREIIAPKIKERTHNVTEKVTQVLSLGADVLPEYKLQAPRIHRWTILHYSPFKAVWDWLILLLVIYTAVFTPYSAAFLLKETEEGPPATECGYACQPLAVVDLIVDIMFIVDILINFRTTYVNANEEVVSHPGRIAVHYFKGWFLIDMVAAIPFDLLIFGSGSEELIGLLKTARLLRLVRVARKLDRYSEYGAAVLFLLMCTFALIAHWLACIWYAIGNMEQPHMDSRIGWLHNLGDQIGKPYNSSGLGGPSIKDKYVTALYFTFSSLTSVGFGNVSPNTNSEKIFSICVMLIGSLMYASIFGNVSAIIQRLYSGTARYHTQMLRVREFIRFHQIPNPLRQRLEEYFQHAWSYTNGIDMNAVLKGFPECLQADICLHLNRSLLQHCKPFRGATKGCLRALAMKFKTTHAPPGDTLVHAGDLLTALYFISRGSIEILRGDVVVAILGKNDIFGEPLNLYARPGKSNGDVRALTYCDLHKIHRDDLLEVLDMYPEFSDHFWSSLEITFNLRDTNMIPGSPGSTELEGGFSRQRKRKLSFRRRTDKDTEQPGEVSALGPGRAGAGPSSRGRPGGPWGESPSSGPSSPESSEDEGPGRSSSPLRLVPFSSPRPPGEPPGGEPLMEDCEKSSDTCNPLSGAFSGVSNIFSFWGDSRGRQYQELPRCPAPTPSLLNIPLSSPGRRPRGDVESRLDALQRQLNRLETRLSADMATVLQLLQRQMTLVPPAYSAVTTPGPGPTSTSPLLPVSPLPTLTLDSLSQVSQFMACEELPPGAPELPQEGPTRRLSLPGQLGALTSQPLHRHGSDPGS

Compound | IC50 [1] [µM] | IC20 [1] [µM] | hERG IC20/TLR7 IC50 [1] | hERG IC20/TLR8 IC50 [1] | hERG IC20/TLR9 IC50 [1] | IC50 [2] [µM]
Cc1cc(N2CCN3[C@@H](C2)CN(c2ccc(C#N)c4ncccc24)C[C@H]3C)nc(N2CC(C)(N)C2)n1 [Example 55, 5-[(4R,9aR)-8-[2-(3-amino-3-methyl-azetidin-1-yl)-6-methyl-pyrimidin-4-yl]-4-methyl-3,4,6,7,9,9a-hexahydro-1H-pyrazino[1,2-a]pyrazin-2-yl]quinoline-8-carbonitrile] | > 20 | > 10 | >680 | >249 | >209 | 0.015
[2H]c1ccc2c(N3C[C@@H]4CN(c5ccc6c(n5)CCNC6)CCN4[C@@H](C)C3)ccc(C#N)c2n1 [Example 121, 5-[(4S,9aR)-4-methyl-8-(5,6,7,8-tetrahydro-1,6-naphthyridin-2-yl)-3,4,6,7,9,9a-hexahydro-1H-pyrazino[1,2-a]pyrazin-2-yl]-2-deuterio-quinoline-8-carbonitrile] | > 20 | > 10 | >2000 | >10000 | >117 | 0.005
C[C@@H]1CN(c2ccc(C#N)c3ncccc23)C[C@@H]2CN(c3cccc4c3CNC4)CCN21 [Example 9, 5-[(4R,9aS)-8-isoindolin-4-yl-4-methyl-3,4,6,7,9,9a-hexahydro-1H-pyrazino[1,2-a]pyrazin-2-yl]quinoline-8-carbonitrile] | > 20 | 5.17 | 1723 | 5170 | 65 | 0.003
C[C@@H]1CN(c2ccc(C#N)c3ncccc23)C[C@@H]2CN(c3nccc(N4CC(N)C4)n3)CCN21 [Example 39, 5-[(4R,9aR)-8-[4-(3-aminoazetidin-1-yl)pyrimidin-2-yl]-4-methyl-3,4,6,7,9,9a-hexahydro-1H-pyrazino[1,2-a]pyrazin-2-yl]quinoline-8-carbonitrile] | > 10 | 5 | 238 | 294 | 53 | 0.021
[2H]c1ccc2c(N3C[C@@H]4CN(Cc5ccc(N6CC(C)(N)C6)nc5C)CCN4[C@H](C)C3)ccc(C#N)c2n1 [Example 79, 5-[(4R,9aS)-8-[[6-(3-amino-3-methyl-azetidin-1-yl)-2-methyl-3-pyridyl]methyl]-4-methyl-3,4,6,7,9,9a-hexahydro-1H-pyrazino[1,2-a]pyrazin-2-yl]-2-deuterio-quinoline-8-carbonitrile] | > 20 | > 10 | >526 | >1666 | >217 | 0.019

— patent US20220340597A1, “HEXAHYDRO-1H-PYRAZINO[1,2-A]PYRAZINE COMPOUNDS FOR THE TREATMENT OF AUTOIMMUNE DISEASE” (Hoffmann-La Roche Inc., priority 2019, published 2022)
